Literature values as cited in patent US7351424B2, “Enhanced purity trans-lutein-ester compositions and methods of making same” (Bio Lut S.A. de C.V., priority 2004, dated 2008).

Details: human, in vivo

bioavailability: even better than free lutein
Substance: lutein esters
